Like-named read-outs stand apart in the source and are kept apart here.
Experiments:
[1] = system: Swiss mice; conditions: mouse, in vivo
Text: Such signs included convulsions and Straub tail(vertical righting of the tail).

[2] = system: Malasezzia furfur; assay: MIC by two-fold dilution, Malasezzia furfur; type: cell-based; conditions: 20 strains
Procedure: (§1) Minimum Inhibitory Concentrations (MICS) of Sertaconazole and Miconazole against 107 yeasts, 47 dermatophytes and 4 fungi were determined by a two-fold dilution method.

[3] = Safe dosage based on the toxicity findings; conditions: in vivo
Procedure: (§2) In a study of prolonged subacute toxicity of Miconazole in rats, among other effects, significant hepatomegalias in females with a dosage of under 30 mg/kg p.o. and in males with a dosage of under 60 mg/kg p.o. were observed.
Based on these finds a safe dosage for Miconazole is about 10 mg/kg, while a safe dosage for Sertaconzole is about 150 mg/kg, i.e about 15 times higher.

[4] = system: Candida albicans; assay: Vaginal infection by Candida albicans in female mice; type: in vivo; conditions: seven days after infection
Text: Besides the above in vivo experiments vaginal infection by Candida albicans was studied in female mice. Standard methods were used. […] Similar results were found in experiments where repeated dosages of active compound were used after infection. These in vivo results confirmed the surprising speed of action of Sertaconazole in comparison to the prior art compounds.

[5] = system: Candida s.p.; assay: MIC by two-fold dilution, Candida s.p.; type: cell-based
Procedure: as §1

[6] = system: cutaneous mycosis; assay: Randomized double blind clinical trials, cutaneous mycosis; conditions: 2 % cream (nitrate salts)
Procedure: Human clinical trials were performed with Sertaconazole nitrate and Miconazole nitrate acid addition salts. Randomized double blind trials were carried out with 502 patients suffering from cutaneous mycosis as confirmed by microscopic examination and microbiological culture. 247 patients were treated with 2 % Sertaconazole cream and the remaining 255 patients were treated with 2 % Miconazole cream. All patients received scheduled treatment for 28 days and were followed up for an additional 28 days for possible relapses.

[7] = system: C. pseudotropicalis 21; assay: MIC, comparative in vitro testing against Martin compounds; type: cell-based; conditions: Sabouraud medium
Procedure: (§3) Minimum Inhibitory Concentrations (MICS) of Sertaconazole were also measured in comparison to four of the compounds described in the Martin Patent, including a compound, referred to herein as Martin Compound 1, which has the same structure as Sertaconazole, expect that the sulfur in the benzothiophene ring is replaced by an oxygen.
(§4) The results of comparative in vitro testing of Sertaconazole and these four Martin compounds are shown in the following Table II against 16 microorganisms. The reading time is the time interval from the time of inoculation to the time of measurement.

[8] = system: C. albicans ATCC E-10231; assay: as above; type: cell-based; conditions: Casitone medium
Procedure: as §3, §4

[9] = system: C. stellatoidea 36232; assay: as above; type: cell-based
Procedure: as §3, §4

[10] = system: C. tropicalis 25; assay: as above; type: cell-based; conditions: YNB medium
Procedure: as §3, §4

[11] = system: C. krusei 24; assay: as above; type: cell-based
Procedure: as §3, §4

[12] = system: C. albicans 15; assay: as above; type: cell-based; conditions: Casitone medium
Procedure: as §3, §4

[13] = system: C. guillermondii; assay: as above; type: cell-based
Procedure: as §3, §4

[14] = system: C. parapsilosis 19; assay: as above; type: cell-based
Procedure: as §3, §4

[15] = system: C. albicans 32; assay: as above; type: cell-based; conditions: YNB medium
Procedure: as §3, §4

[16] = system: C. albicans 14; assay: as above; type: cell-based; conditions: Casitone medium
Procedure: as §3, §4

[17] = system: C. albicans 31; assay: as above; type: cell-based; conditions: YNB medium
Procedure: as §3, §4

[18] = Prolonged subacute toxicity in rats; type: in vivo, rat; conditions: rat, in vivo, po
Procedure: as §2

Clc1ccc(C(Cn2ccnc2)OCc2csc3c(Cl)cccc23)c(Cl)c1 (centres unmarked) [Sertaconazole]
8000 mg/kg: LD50 ([1]; ip)
0.25 µg/mL: MIC ([9]; Candida albicans, 36232, 48 h, Sabouraud medium, reading time 48 h, SZ vs M2) | MIC ([9]; Candida albicans, 36232, 60 h, Casitone medium, reading time 60 h, SZ vs M1) | MIC ([11]; Pichia kudriavzevii, 24, 48 h, Casitone medium, reading time 48 h, SZ vs M2, read-out: MIC) | MIC ([11]; Pichia kudriavzevii, 24, 48 h, YNB medium, reading time 48 h, SZ vs M2, read-out: MIC) | MIC ([11]; Pichia kudriavzevii, 24, 48 h, YNB medium, reading time 48 h, SZ vs M3, read-out: MIC) | MIC ([11]; Pichia kudriavzevii, 24, 48 h, YNB medium, reading time 48 h, SZ vs M4, read-out: MIC) | MIC ([11]; Pichia kudriavzevii, 24, 60 h, YNB medium, reading time 60 h, SZ vs M1, read-out: MIC) | MIC ([13]; 48 h, Casitone medium, reading time 48 h, SZ vs M2, read-out: MIC) | MIC ([13]; 48 h, Casitone medium, reading time 48 h, SZ vs M3, read-out: MIC) | MIC ([13]; 48 h, Casitone medium, reading time 48 h, SZ vs M4, read-out: MIC) | MIC ([13]; 48 h, YNB medium, reading time 48 h, SZ vs M2, read-out: MIC) | MIC ([13]; 60 h, YNB medium, reading time 60 h, SZ vs M1, read-out: MIC) | MIC ([14]; 19, 48 h, Sabouraud medium, reading time 48 h, SZ vs M2) | MIC ([14]; 19, 48 h, Sabouraud medium, reading time 48 h, SZ vs M3) | MIC ([14]; 19, 48 h, Sabouraud medium, reading time 48 h, SZ vs M4) | MIC ([14]; 19, 48 h, YNB medium, reading time 48 h, SZ vs M2) | MIC ([16]; Candida albicans, 14, 48 h, reading time 48 h, SZ vs M2)
about 15 times: safe dosage higher than that of Miconazole [3]
8 µg/mL: MIC ([10]; Candida tropicalis, 25, 48 h, reading time 48 h, SZ vs M2) | MIC ([10]; Candida tropicalis, 25, 60 h, reading time 60 h, SZ vs M1) | MIC ([15]; Candida albicans, 32, reading time 60 h, SZ vs M1, read-out: MIC) | MIC ([17]; Candida albicans, 31, reading time 60 h, SZ vs M1, read-out: MIC)
≥ 300 mg/kg: NOAEL [18]
4000 mg/kg: LD0 ([1]; ip)
no such side effects: side effects (contact dermatitis) [6]
47.4%: increase of activity in comparison to Miconazole ([5]; in vitro)
1 µg/mL: MIC ([8]; Candida albicans, ATCCE10231, reading time 60 h, SZ vs M1, read-out: MIC) | MIC ([9]; Candida albicans, 36232, 48 h, YNB medium, reading time 48 h, SZ vs M2) | MIC ([9]; Candida albicans, 36232, 60 h, Sabouraud medium, reading time 60 h, SZ vs M1) | MIC ([11]; Pichia kudriavzevii, 24, 60 h, Casitone medium, reading time 60 h, SZ vs M1, read-out: MIC) | MIC ([14]; 19, 60 h, Sabouraud medium, reading time 60 h, SZ vs M1) | MIC ([16]; Candida albicans, 14, 60 h, reading time 60 h, SZ vs M1)
0.5 µg/mL: MIC ([5]; Candida, 15 strains, read-out: Minimum Inhibitory Concentration) | MIC ([8]; Candida albicans, ATCCE10231, reading time 48 h, SZ vs M2, read-out: MIC) | MIC ([8]; reading time 48 h, SZ vs M3) | MIC ([8]; reading time 48 h, SZ vs M4) | MIC ([9]; Candida albicans, 36232, 48 h, Sabouraud medium, reading time 48 h, SZ vs M3) | MIC ([9]; Candida albicans, 36232, 48 h, Sabouraud medium, reading time 48 h, SZ vs M4) | MIC ([9]; Candida albicans, 36232, 48 h, YNB medium, reading time 48 h, SZ vs M3) | MIC ([9]; Candida albicans, 36232, 48 h, YNB medium, reading time 48 h, SZ vs M4) | MIC ([12]; Candida albicans, 15, 60 h, reading time 60 h, SZ vs M1) | MIC ([13]; 60 h, Casitone medium, reading time 60 h, SZ vs M1, read-out: MIC) | MIC ([14]; 19, 48 h, YNB medium, reading time 48 h, SZ vs M3) | MIC ([14]; 19, 48 h, YNB medium, reading time 48 h, SZ vs M4) | MIC ([14]; 19, 60 h, YNB medium, reading time 60 h, SZ vs M1) | MIC ([16]; Candida albicans, 14, 48 h, reading time 48 h, SZ vs M3) | MIC ([16]; Candida albicans, 14, 48 h, reading time 48 h, SZ vs M4)
8-15 times: less toxic than Martin Compound 1 [1]
4 µg/mL: MIC ([9]; Candida albicans, 36232, 60 h, YNB medium, reading time 60 h, SZ vs M1) | MIC ([10]; Candida tropicalis, 25, 48 h, reading time 48 h, SZ vs M3) | MIC ([10]; Candida tropicalis, 25, 48 h, reading time 48 h, SZ vs M4) | MIC ([15]; Candida albicans, 32, reading time 48 h, SZ vs M2, read-out: MIC) | MIC ([15]; reading time 48 h, SZ vs M3) | MIC ([15]; reading time 48 h, SZ vs M4) | MIC ([17]; Candida albicans, 31, reading time 48 h, SZ vs M2, read-out: MIC) | MIC ([17]; reading time 48 h, SZ vs M3) | MIC ([17]; reading time 48 h, SZ vs M4)
20.8%: more effective than Miconazole ([6]; 28 days treatment)
0.125 µg/mL: MIC ([11]; Casitone medium, reading time 48 h, SZ vs M4) | MIC ([11]; Pichia kudriavzevii, 24, 48 h) | MIC ([13]; 48 h) | MIC ([13]; YNB medium, reading time 48 h, SZ vs M4)
not observed: signs of intoxication in the central nervous system (convulsions and Straub tail) [1]
0.03 µg/mL: MIC ([7]; Kluyveromyces marxianus, 21, reading time 48 h, SZ vs M2, read-out: MIC) | MIC ([7]; Kluyveromyces marxianus, 21, reading time 60 h, SZ vs M1, read-out: MIC) | MIC ([7]; reading time 48 h, SZ vs M3) | MIC ([7]; reading time 48 h, SZ vs M4) | MIC ([12]; Candida albicans, 15, 48 h, reading time 48 h, SZ vs M3) | MIC ([12]; Candida albicans, 15, 48 h, reading time 48 h, SZ vs M4)
0.06 µg/mL: MIC ([9]; Candida albicans, 36232, 48 h, Casitone medium, reading time 48 h, SZ vs M2) | MIC ([9]; Candida albicans, 36232, 48 h, Casitone medium, reading time 48 h, SZ vs M3) | MIC ([9]; Candida albicans, 36232, 48 h, Casitone medium, reading time 48 h, SZ vs M4) | MIC ([12]; Candida albicans, 15, 48 h, reading time 48 h, SZ vs M2)
75%: animals healed [4]
~150 mg/kg: NOAEL ([3]; rat)
25/8: Minimum Inhibitory Concentration [2]

Reference: US5135943A, “1H-imidazole derivative compounds and pharmaceutical compositions containing the same” (priority 1984, dated 1992)
